Test results taken from ChEMBL document CHEMBL3351766, “Asymmetric binding to NS5A by daclatasvir (BMS-790052) and analogs suggests two novel modes of HCV inhibition” (J Med Chem, 2014).

What was measured:
Hepatitis C virus [1] = test: Antiviral activity against wild type HCV genotype 1b assessed as replication level; type: functional, Hepacivirus hominis; settings: for EC50: Hepatitis C virus, genotype 1b
Hepatitis C virus [2] = test: Antiviral activity against HCV genotype 1b expressing NS5A Y93H mutant assessed as replication level; type: functional, Hepacivirus hominis; settings: for EC50: Hepatitis C virus, genotype 1b
Hepatitis C virus [3] = test: Antiviral activity against HCV genotype 1b expressing NS5A L31F mutant assessed as replication level
Hepatitis C virus [4] = test: Antiviral activity against HCV genotype 1b expressing NS5A L31V/Y93H mutant assessed as replication level; type: functional, Hepacivirus hominis
Hepatitis C virus [5] = test: Antiviral activity against HCV genotype 1b expressing NS5A L31M/Y93H mutant assessed as replication level; type: functional, Hepacivirus hominis
Hepatitis C virus [6] = test: Antiviral activity against HCV genotype 1b expressing NS5A L31V mutant assessed as replication level; type: functional, Hepacivirus hominis
Hepatitis C virus [7] = test: Antiviral activity against HCV genotype 1b expressing NS5A L31M mutant assessed as replication level; type: functional, Hepacivirus hominis

COC(=O)N[C@H](C(=O)N1CCC[C@H]1c1ncc(-c2ccc(Oc3ccc(-c4cnc([C@@H]5CCCN5C(=O)[C@@H](NC(=O)OC)C(C)C)[nH]4)cc3)cc2)[nH]1)C(C)C
EC50 (Hepatitis C virus [1]): 30 nM

COC(=O)N[C@H](C(=O)N1C[C@@H](N=[N+]=[N-])C[C@H]1c1ncc(-c2ccc(-c3ccc(-c4cnc([C@@H]5C[C@H](N=[N+]=[N-])CN5C(=O)[C@@H](NC(=O)OC)C(C)C)[nH]4)cc3)cc2)[nH]1)C(C)C
EC50 (Hepatitis C virus [1]): 0.023 nM

COC(=O)N[C@H](C(=O)N1C[C@H](N=[N+]=[N-])C[C@H]1c1ncc(-c2ccc(-c3ccc(-c4cnc([C@@H]5C[C@@H](N=[N+]=[N-])CN5C(=O)[C@@H](NC(=O)OC)C(C)C)[nH]4)cc3)cc2)[nH]1)C(C)C
EC50 (Hepatitis C virus [1]): 0.0184 nM

COC(=O)N[C@H](C(=O)N1C[C@H](n2cc(C(=O)OC)nn2)C[C@H]1c1ncc(-c2ccc(-c3ccc(-c4cnc([C@@H]5C[C@@H](n6cc(C(=O)OC)nn6)CN5C(=O)[C@@H](NC(=O)OC)C(C)C)[nH]4)cc3)cc2)[nH]1)C(C)C
EC50 (Hepatitis C virus [1]): 0.0118 nM

COC(=O)N[C@H](C(=O)N1C[C@@H](n2cc(C(=O)OC)nn2)C[C@H]1c1ncc(-c2ccc(-c3ccc(-c4cnc([C@@H]5C[C@H](n6cc(C(=O)OC)nn6)CN5C(=O)[C@@H](NC(=O)OC)C(C)C)[nH]4)cc3)cc2)[nH]1)C(C)C
EC50 (Hepatitis C virus [1]): > 10 nM

COC(=O)N[C@H](C(=O)N1CCC[C@H]1c1ncc(-c2ccccc2)[nH]1)C(C)C
EC50 (Hepatitis C virus [1]): > 1000 nM

COC(=O)N[C@H](C(=O)N1CCC[C@H]1c1ncc(-c2ccc(N=[N+]=[N-])cc2)[nH]1)C(C)C
EC50 (Hepatitis C virus [2]): 8 nM

COC(=O)N[C@H](C(=O)N1CCC[C@H]1c1nc(Br)c(-c2ccc(N=[N+]=[N-])cc2)[nH]1)C(C)C
EC50 (Hepatitis C virus [3]): 0.7 nM

COC(=O)N[C@H](C(=O)N1CCC[C@H]1c1nc(Br)c(-c2ccc(Oc3ccc(-c4[nH]c([C@@H]5CCCN5C(=O)[C@@H](NC(=O)OC)C(C)C)nc4Br)cc3)cc2)[nH]1)C(C)C
EC50 (Hepatitis C virus [1]): 0.05 nM

COC(=O)N[C@H](C(=O)N1CCC[C@H]1c1ncc(-c2ccc(-c3ccc(-c4cnc([C@@H]5CCCN5C(=O)[C@@H](NC(=O)OC)C(C)C)[nH]4)cc3)cc2)[nH]1)C(C)C [DACLATASVIR]
Activity (Hepatitis C virus [4]): 50% | EC50 (Hepatitis C virus [4]; Hepatitis C virus, genotype 1b): 38 nM | Activity (Hepatitis C virus [1]): 100% | EC50 (Hepatitis C virus [1]): 0.0026 nM | Activity (Hepatitis C virus [5]): 70% | EC50 (Hepatitis C virus [5]; Hepatitis C virus, genotype 1b): 18.3 nM | Activity (Hepatitis C virus [6]): 158% | EC50 (Hepatitis C virus [6]; Hepatitis C virus, genotype 1b): 0.0717 nM | Activity (Hepatitis C virus [2]): 27% | EC50 (Hepatitis C virus [2]): 0.0623 nM | Activity (Hepatitis C virus [7]): 99% | EC50 (Hepatitis C virus [7]; Hepatitis C virus, genotype 1b): 0.0084 nM
